Columns and labels:
[1] = test system: corneal angiogenesis; assay: Inhibitory effects against corneal angiogenesis in animal models having corneal damage (subconjunctival injection); assay type: in vivo, Sprague Dawley rats; conditions: subconjunctival injection 20 μl; KR 0.3 mg/ml, Avastin 10 mg/ml; 1 week after administration
Procedure: (§1) The tests were performed by using Sprague Dawley rats (8 weeks old, male) as animals having corneal damage (15 rats for the experiment group; and 1 rat for normal group, respectively). The corneal damage was induced by applying a cotton swab coated with silver nitrate to the surface of the rat corneas, as as to induce a damage having a diameter of 2 mm in the central cornea. On the third day after inducing the corneal damages, we confirmed the establishment of corneal angiogenesis-inducing models and then subconjunctivally injected a solution (20 μl) prepared by dissolving the compound of Preparation Example 23, i.e., (2R,3R,4S)-6-amino-4-[N-(4-chlorophenyl)-N-(1H-imidazol-2-ylmethyl)amino]-3-hydroxy-2-methyl-2-dimethoxymethyl-3,4-dihydro-2H-1-benzopyran (KR-31831) in phosphate buffered saline (PBS) containing 10% PEG 400, in the concentration of 0.3 mg/ml. In case of the control group, the PBS (20 μl) containing 10% PEG 400 was subconjunctivally injected. As a positive control, a solution (20 μl) prepared by dissolving Avastin (used as an angiogenesis inhibitor) in PBS in the concentration of 10 mg/ml was subconjunctivally injected. The evaluations quantifying the photographs of FIG. 1 were performed by using the Image J (NIH, USA) program and the results thereof were shown in FIG. 2.

[2] = test system: retinal angiogenesis; assay: Laser-induced retinal damage model, retinal angiogenesis by dextran-FITC fluorescence; assay type: in vivo, Brown Norway rats; conditions: Avastin 2.5 mg/ml, 10 μl into the vitreous humor; 2 weeks after administration
Procedure: The tests were performed by using Brown Norway rats (8 weeks old, male) as animals having retinal damage (15 rats for the experiment group; and 1 rat for normal group, respectively). The retinal Bruch's membrane of each Brown Norway rat was damaged using a Zeiss 532s laser at the intensity of […], 30 ms. On the third day after the laser-damaging, the drug was administered into the vitreous humor in order to observe the retinal vessels. The compound of the present invention, i.e., (2R,3R,4S)-6-amino-4-[N-(4-chlorophenyl)-N-(1H-imidazol-2-ylmethyl)amino]-3-hydroxy-2-methyl-2-dimethoxymethyl-3,4-dihydro-2H-1-benzopyran was administered with the solutions (10 μl of each solution) obtained by dissolving in PBS containing 30% PEG 400 and 10% DMSO, in the concentrations of 0.1 mg/ml and 0.3 mg/ml. Avastin was administered with the solution (10 μl) obtained by dissolving in PBS in the concentration of 2.5 mg/ml. In case of the control group, the PBS (10 μl) was administered. In addition, (2R,3R,4S)-6-amino-4-[N-(4-chlorophenyl)-N-(1H-imidazol-2-ylmethyl)amino]-3-hydroxy-2-methyl-2-dimethoxymethyl-3,4-dihydro-2H-1-benzopyran was intraperitoneally administered with the solution obtained by dissolving in PBS containing 30% PEG 400 and 10% DMSO, in the dose of 25 mg/kg. 2 weeks after the drug administrations, dextran-FITC was injected into the left ventricle in the dose of 25 mg/kg, followed by enucleating the eye after 5 minutes therefrom; and then fixing in a 10% formalin solution. The cornea and the eye lens were removed from the fixed eye, which was then observed under a fluorescence microscope. Angiogenesis was identified by the intensity and leakage of dextran-FITC in the laser-induced damage site; and the results thereof were shown in FIG. 7. The evaluations quantifying the photographs of FIG. 7 were performed by using the Image J (NIH, USA) program and the results thereof were shown in FIG. 8.

[3] = test system: VEGF receptor 2 (FLK-1); assay: Expression of VEGF receptor 2 (FLK-1) in corneal tissue by RT-PCR; assay type: in vivo, rats; conditions: subconjunctival injection 20 μl; KR 0.3 mg/ml, Avastin 10 mg/ml
Procedure: The tests were performed for confirming corneal angiogenesis as a marker. To a Trizole™ solution (200 μl), were added each corneal tissue obtained from the rats of Example 1. Total RNAs were isolated and then cDNAs were prepared by using a reverse transcriptase. Each cDNA (5 μl) was mixed with the primer set of FLK-1 and then PCR amplication was performed in a thermocycler under the following conditions; denaturation at 94° C. for 5 minutes, and then 35 cycles of denaturation at 94° C. for 20 seconds, annealing at 58° C. for 1 minute, and extension at 72° C. for 25 seconds. Each PCR product was loaded on 1% agarose gel; and the resulting ethidium bromide fluorescent bands were identified.

[4] = test system: corneal angiogenesis; assay: Inhibitory effects against corneal angiogenesis, subconjunctival injection and eye drop-administration; assay type: in vivo, Sprague Dawley rats; conditions: subconjunctival injection 20 μl plus eye drop 50 μl; KR 0.3 mg/ml, Avastin 10 mg/ml
Procedure: as §1, with “In case of the control group, the PBS (20 μl) containing 10% PEG 400 was subconjunctivally injected. As a positive control, a solution (20 μl) prepared by dissolving Avastin (used as an angiogenesis inhibitor) in PBS in the concentration of 10 mg/ml was subconjunctivally injected.” left out
Except for performing both the subconjunctival injection and the eye drop-administration of (2R,3R,4S)-6-amino-4-[N-(4-chlorophenyl)-N-(1H-imidazol-2-ylmethyl)amino]-3-hydroxy-2-methyl-2-dimethoxymethyl-3,4-dihydro-2H-1-benzopyran and Avastin, the inhibitory effects against angiogenesis were evaluated according to the same manners as in Example 1. […]

[5] = test system: rat corneal epithelial wound; assay: Corneal Wound Healing Assay (2); assay type: in vivo, SD rats; conditions: topical 3 and 6 mg/ml every 6 hour; observed at 0 and 18 hours
Procedure: (§2) SD rats (male, 8 weeks, 250 g) were used. Animal study protocol was in accordance with the Association for Research in Vision and Ophthalmology Statement for the Use of Animals in Ophthalmic and Visual Research. All animals were housed in individual cages and maintained under standard conditions (12 hour light-dark cycle).
(§3) Rats were anesthetized by Zoletil® (50 mg/kg, Tiletamina 25 mg, Zolazepam 25 mg; Vibrac, Carros, France) and Rompun® (10 mg/kg, Bayer, France). The cornea was anesthetized by topical 0.5% proparacaine (Alcaine®; Alcon, Fort Worth, Tex., USA). After applying 0.5% proparacaine drops, 5.0 mm Trephine Blade® (Katena, Denville, N.J., USA) was placed and fixed firmly on the corneal surface. One drop of 20% ethanol were put into the tephine well and left in place for 30 seconds, then absorbed with a dry cellulose sponge (Merocel®; Medtronic Solan, Jacksonville, Fla., USA) and irrigated with normal saline. And the epithelium was removed in 6.0 mm diameter.
The drugs were each topically applied in 3 mg/ml (0.3%) and 6 mg/ml (0.6%) concentrations (in 5% DMSO, 10% PEG (Mw 400) and 85% saline (0.9% NaCl)) in every 6 hour, respectively.
(§4) The corneal wounds were captured by digital camera under cobalt blue light and the defect area was analyzed by Image J software (Ver 4.1, NIH). The significance between Vehicle and each group was analyzed by paired T-test, and the significance of the test was analyzed by One Way ANOVA analysis.

[6] = test system: rat corneal epithelial wound; assay: Corneal Wound Healing Assay (1); assay type: in vivo, SD rats; conditions: topical 10 mg/ml (1%) every 6 hour; observed at 0 and 18 hours
Procedure: as §2
as §3, with “2. Corneal Epithelium Removal Rats” for “Rats”
The drugs were each topically applied in 10 mg/ml (1%) concentration (in 5% DMSO, 10% PEG (Mw 400) and 85% saline (0.9% NaCl)) in every 6 hour.
as §4

## Avastin: protein drug used in anti-VEGF antibody injection therapy; used as an angiogenesis inhibitor, positive control
[1]
  corneal angiogenesis in comparison with the corneal angiogenesis (100%) of the control group: 66.4±10.6%
[2]
  fluorescence intensity at laser-induced damage site (surrounding vessels = 100): 46±3
[3]
  FLK-1 expression in the cornea (control group 100%): about 59%
[4]
  angiogenesis in comparison with the angiogenesis (100%) of the control group: 29.3±8.6%

## CNC1(C)C2CCC(C2)C1(C)C (stereo not shown) [ATG-003]
[5]
  inhibitory effect on normal healing of rat corneal epithelial wound: showed inhibitory effect
[6]
  inhibitory effect on normal healing of rat corneal epithelial wound: showed inhibitory effect
  rate (%) of wound healing compared to vehicle control and KR-31831 (rank): the second lowest rate (%) of wound healing

## Cc1cc(-c2cc(OC(=O)c3ccccc3)ccc2Cl)cc2nnc(Nc3ccc(OCCN4CCCC4)cc3)nc12 [TG100801]
[5]
  inhibitory effect on normal healing of rat corneal epithelial wound: showed inhibitory effect
[6]
  inhibitory effect on normal healing of rat corneal epithelial wound: showed inhibitory effect
  rate (%) of wound healing compared to vehicle control and KR-31831 (rank): the lowest rate (%) of wound healing

## Cc1ccc(Nc2nccc(N(C)c3ccc4c(C)n(C)nc4c3)n2)cc1S(N)(=O)=O [Pazopanib]
[5]
  inhibitory effect on normal healing of rat corneal epithelial wound: showed inhibitory effect
[6]
  inhibitory effect on normal healing of rat corneal epithelial wound: showed inhibitory effect
  rate (%) of wound healing compared to vehicle control and KR-31831 (rank): the least lowest rate (%) of wound healing among the three but lower than the control
